Measured values published in US9701709B2 (REATA PHARMACEUTICALS, INC., priority 2012, dated 2017).
pIC50: −log10 of the molar value. Where two headings read alike, the source gives them in different places.

Assays:
[1] = tested on: NF-κB in NIH3T3/NF-κB-luc cell line; assay: NF-κB luciferase reporter in NIH3T3/NF-κB-luc; format: cell-based; details: Mus musculus
Source text: (b) TNF-α-induced activation of an NF-κB luciferase reporter in the mouse NIH3T3 cell line.
(§1) NF-κB is a transcription factor that plays a central role in the regulation of many immune and inflammatory responses. […] The NIH3T3/NF-κB-luc cell line maintains a chromosomal integration of a Firefly luciferase reporter construct regulated by eight copies of the NF-κB response element. The effects of these compounds can be quantified by measuring the value of the NF-κB IC50.

[2] = tested on: TNF-α-induced NF-κB activation in A549/NF-κB-Luc cells; assay: TNF-α-induced NF-κB luciferase reporter in A549/NF-κB-Luc; format: cell-based; details: Homo sapiens
Source text: (b) TNF-α-induced activation of an NF-κB luciferase reporter in the human A549 cell line.
as §1

[3] = tested on: rat GSTA2 ARE (Nrf2) in AREc32 reporter cell line; assay: GSTA2-ARE luciferase reporter in AREc32; details: 4-fold GSTA2-ARE induction
MRP-1 = MRP-1 (Homo sapiens, UniProt P33527); assay: in vitro; details: not told
[4] = tested on: human NQO1 ARE (Nrf2) in HuH-7 human hepatoma cells; assay: NQO1-ARE luciferase reporter in HuH-7; format: cell-based; details: for Concentration required to increase transcription from the NQO1 ARE by 2-fold: HuH-7, 18 h
Source text: The first luciferase reporter tested was under the control of a single ARE derived from the promoter of the human NQO1 gene, which allows for quantitative assessment of the endogenous activity of the Nrf2 transcription factor in cultured mammalian cells. […] The NQO1-ARE-luciferase reporter plasmid was constructed by inserting the human NQO1-ARE ([NT] ID NO: 31) into the pLuc-MCS vector using HindIII/XhoI cloning sites (GenScript Corp., Piscataway, N.J.). […] Firefly and Renilla luciferase activity was assayed by Dual-Glo Luciferase Assay (cat # E2920, Promega), and the luminescence signal was measured on an L-Max II luminometer (Molecular Devices). Firefly luciferase activity was normalized to the Renilla activity, and fold induction over a vehicle control (DMSO) of normalized Firefly activity was calculated. […] Values represent the average of three independent experiments.

[5] = Distribution into mouse tissues after PO QD×3; format: in vivo; details: mice PO QD×3 25 mg/kg, 6 h after last dose, semi-quantitative
Experimental: Semi-quantitative analysis of drug content was performed.

NQO1 activity = NQO1 activity induction in mouse liver, lung, and kidney after PO QD×3; format: in vivo; details: mice PO QD×3 25 mg/kg, 6 h after last dose
Experimental: FIG. 53—NQO1 activity induction in mouse liver, lung, and kidney by 63415. Mice were dosed PO QD×3 with 25 mg/kg. Tissues were collected 6 h after the last dose, and analysis of NQO1 activity was performed.

[6] = tested on: LPS-induced NO (plasma NOx, Griess Reaction); assay: Suppression of NO in vivo after LPS in CD-1 mice; design: species or system mouse; details: LPS 5 mg/kg 24 h later
Experimental: FIG. 51—Dose-dependent suppression of NO in vivo by 63415. CD-1 mice (n=6) were dosed with DMSO or […] by oral gavage. LPS (5 mg/kg) was administered 24 h later. Twenty-four hours after LPS administration, whole blood was collected for NO assay. NO inhibition was determined by Griess Reaction from reduced, de-proteinated plasma.

[7] = Dynamic vapor sorption (hygroscopicity); format: physicochemical
Experimental: Projekt Messtechnik Sorptions Prüfsystem SPS 11-100n or Surface Measurement Systems DVS-1. The sample was placed on an aluminum or platinum holder on top of a microbalance and allowed to equilibrate for 2 h at 50% r.h. before starting the pre-defined humidity program: • (1) 50→0% r.h. (5%/h); 5 h at 0% r.h. • (2) 0→95% r.h. (5%/h); 5 h at 95% r.h. • (3) 95→50% r.h. (5%/h); 2 h at 50% r.h.

[8] = Polymorph screen: crystallization and drying experiments (FT-Raman, PXRD, TG-FTIR, DSC); format: physicochemical
Experimental: A preformulation and polymorphism study was performed for compound 63415. […] A total of 30 crystallization experiments, including phase equilibrations, drying experiments and other techniques, were carried out. All obtained solids were characterized by FT-Raman spectroscopy. All new forms were characterized by PXRD and TG-FTIR, and optionally by DSC and DVS.
All obtained materials were characterized by FT-Raman spectroscopy; selected samples were also characterized by PXRD.
Suspension equilibration experiments were carried out in one solvent and eleven solvent mixtures (Table 13). Suspensions of ˜100 mg of PP415-P1 in 0.2-2.0 mL of the selected solvents were prepared and shaken for 4-15 days at 22-24° C. The solids were recovered and characterized by FT-Raman spectroscopy; most were characterized also by PXRD.
Hot solutions of PP415-P1 were prepared in one solvent and four solvent mixtures (Table 14). […] In two cases (-P22, -P23) no solid precipitated, even after storage at 4-5° C. for two days. Here, the solvent was evaporated under N2 flow at r.t. The solids were recovered and characterized by FT-Raman spectroscopy and for those with spectra different from the amorphous starting material, FT-Raman class 1, also by PXRD.
Clear solutions of PP415-P1 were prepared in three solvent mixtures (Table 15). The solvents were then slowly evaporated at r.t. under ambient conditions. However, in two of the three experiments (-P15 and -P17) white solid precipitated before evaporation began. The obtained solids were examined by FT-Raman spectroscopy and PXRD.
At least one sample of each class was dried under vacuum with the aim to desolvate the solvates and to obtain non-solvated crystalline forms of 63415 (Table 16). The dried materials were characterized further by FT-Raman, PXRD, and TG-FTIR.
Bruker RFS100 with OPUS 6.5 software; Nd:YAG 1064-nm excitation, Ge detector, 3500-100 cm^−1 range; typical measurement conditions: 100-300 mW nominal laser power, 64-128 scans, 2 cm^−1 resolution.
Stoe Stadi P; Mythen1K Detector; Cu—Kα radiation; standard measurement conditions: transmission; 40 kV and 40 mA tube power; curved Ge monochromator; 0.02°2θ step size, 12 s or 60 s step time, 1.5-50.5°2θ or 1.0-55°2θ scanning range; detector mode: step scan; 1°2θ or 6°2θ detector step; standard sample preparation: 10 to 20 mg sample was placed between two acetate foils; sample holder: Stoe transmission sample holder; the sample was rotated during the measurement.
Netzsch Thermo-Microbalance TG 209 with Bruker FT-IR Spectrometer Vector 22; aluminum crucible (with microhole), N2 atmosphere, 10 K/min heating rate, 25-250° C. or 25-350° C. range.
Perkin Elmer DSC 7; gold crucibles (closed or with microhole), sample filled in an N2 environment, 10 K/min heating rate, −50 to 250° C. or 350° C. range, at times quench cooling (at −200 K/min) to −50° C. between scans.

[9] = not viability normalized, read-out: NIH3T3/NF-κB IC50
[10] = viability normalized, read-out: NIH3T3/NF-κB IC50, normalized for viability
[11] = not viability normalized, read-out: NF-κB IC50, human A549 cell line (further experimentation)
[12] = read-out: NF-κB IC50, human A549 cell line, viability normalized

MRP-1, sequence (P33527 whole entry): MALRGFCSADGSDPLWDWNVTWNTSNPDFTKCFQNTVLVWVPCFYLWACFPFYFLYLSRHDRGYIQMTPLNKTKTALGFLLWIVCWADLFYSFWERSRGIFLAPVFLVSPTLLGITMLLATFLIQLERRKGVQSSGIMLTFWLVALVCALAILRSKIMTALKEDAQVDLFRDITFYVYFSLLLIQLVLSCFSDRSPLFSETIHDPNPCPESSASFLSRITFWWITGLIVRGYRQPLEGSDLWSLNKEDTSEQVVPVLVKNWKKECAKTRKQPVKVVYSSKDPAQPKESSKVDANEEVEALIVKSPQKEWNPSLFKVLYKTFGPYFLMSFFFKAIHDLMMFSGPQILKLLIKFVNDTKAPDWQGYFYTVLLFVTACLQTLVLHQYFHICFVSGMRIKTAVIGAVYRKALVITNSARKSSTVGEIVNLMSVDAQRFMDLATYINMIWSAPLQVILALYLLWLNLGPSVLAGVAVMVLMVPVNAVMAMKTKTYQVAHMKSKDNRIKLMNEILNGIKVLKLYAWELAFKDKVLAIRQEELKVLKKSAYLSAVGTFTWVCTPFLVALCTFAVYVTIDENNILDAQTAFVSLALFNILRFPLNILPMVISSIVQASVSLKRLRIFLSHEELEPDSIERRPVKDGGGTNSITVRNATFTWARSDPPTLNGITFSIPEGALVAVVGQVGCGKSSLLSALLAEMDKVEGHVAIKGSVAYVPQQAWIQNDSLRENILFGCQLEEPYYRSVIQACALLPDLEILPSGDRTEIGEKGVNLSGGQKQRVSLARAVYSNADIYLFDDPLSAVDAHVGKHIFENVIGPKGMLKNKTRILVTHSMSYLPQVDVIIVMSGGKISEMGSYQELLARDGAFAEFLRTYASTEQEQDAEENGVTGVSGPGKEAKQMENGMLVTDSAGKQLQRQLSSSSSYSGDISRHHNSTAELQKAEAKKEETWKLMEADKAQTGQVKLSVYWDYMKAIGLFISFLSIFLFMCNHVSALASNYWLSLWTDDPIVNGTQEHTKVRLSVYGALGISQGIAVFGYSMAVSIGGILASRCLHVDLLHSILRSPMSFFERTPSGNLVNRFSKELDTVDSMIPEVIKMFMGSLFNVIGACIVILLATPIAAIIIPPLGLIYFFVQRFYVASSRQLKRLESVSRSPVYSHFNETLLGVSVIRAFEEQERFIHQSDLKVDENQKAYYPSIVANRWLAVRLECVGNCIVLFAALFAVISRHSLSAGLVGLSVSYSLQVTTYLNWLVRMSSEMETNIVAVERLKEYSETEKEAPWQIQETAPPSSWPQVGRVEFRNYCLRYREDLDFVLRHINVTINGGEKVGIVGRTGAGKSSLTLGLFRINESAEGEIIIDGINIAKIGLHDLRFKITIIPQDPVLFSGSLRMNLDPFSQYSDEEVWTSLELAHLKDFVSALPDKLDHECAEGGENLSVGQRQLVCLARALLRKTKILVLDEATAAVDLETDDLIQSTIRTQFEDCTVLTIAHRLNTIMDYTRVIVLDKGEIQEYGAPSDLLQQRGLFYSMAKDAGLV

Structure (SMILES)	pIC50 [1, 9]	pIC50 [1, 10]	pIC50 [2, 11]	pIC50 [2, 12]	Fold increase in amount of compound needed compared to RTA 402 for the same activity [3] [fold]	efflux ratio (MRP-1)	Concentration required to increase transcription from the NQO1 ARE by 2-fold [4] [nM]	further results
CC(=O)N[C@]12CCC(C)(C)C[C@H]1[C@H]1C(=O)C=C3[C@@]4(C)C=C(C#N)C(=O)C(C)(C)[C@@H]4CC[C@@]3(C)[C@]1(C)CC2 [Compound 63170]	5.96	5.96	6.00	5.96	3.40	10	25.2	–
CC1(C)CC[C@]2(NC(=O)C(F)(F)F)CC[C@]3(C)[C@H](C(=O)C=C4[C@@]5(C)C=C(C#N)C(=O)C(C)(C)[C@@H]5CC[C@]43C)[C@@H]2C1 [Compound 63171]	5.77	5.74	5.70	5.68	2.65	11.2	–	–
CC1(C)CC[C@]2(NC(=O)CC(F)(F)F)CC[C@]3(C)[C@H](C(=O)C=C4[C@@]5(C)C=C(C#N)C(=O)C(C)(C)[C@@H]5CC[C@]43C)[C@@H]2C1 [Compound 63179]	6.70	6.22	5.85	5.82	6.05	56.5	29.1	–
CCC(=O)N[C@]12CCC(C)(C)C[C@H]1[C@H]1C(=O)C=C3[C@@]4(C)C=C(C#N)C(=O)C(C)(C)[C@@H]4CC[C@@]3(C)[C@]1(C)CC2 [Compound 63189]	5.96	6.00	5.96	5.92	3.47	57.1	14.9	–
CC1(C)CC[C@]2(CO)CC[C@]3(C)[C@H](C(=O)C=C4[C@@]5(C)C=C(C#N)C(=O)C(C)(C)[C@@H]5CC[C@]43C)[C@@H]2C1 [Compound 63355]	–	–	–	–	–	–	–	NQO1-ARE (fold at 62.5 nM in HuH7) ([4]; 62.5 nM): 6.5 ± 0.9 fold
CCNC(=O)[C@]12CCC(C)(C)C[C@H]1[C@H]1C(=O)C=C3[C@@]4(C)C=C(C#N)C(=O)C(C)(C)[C@@H]4CC[C@@]3(C)[C@]1(C)CC2 [RTA 405, reference compound]	–	–	–	–	–	–	–	concentration at 6 h ([5]; brain, read-out: Drug content, Brain): 93 nM; concentration at 6 h ([5]; kidney, read-out: Drug content, Kidney): 2360 nM; concentration at 6 h ([5]; liver, read-out: Drug content, Liver): 1140 nM; concentration at 6 h ([5]; lung, read-out: Drug content, Lung): 1630 nM; concentration at 6 h ([5]; plasma, read-out: Drug content, Plasma): 130 nM; concentration at 6 h ([5]; whole blood, read-out: Drug content, Whole Blood): 1160 nM; NQO1 activity induction, Kidney (NQO1 activity): 8.25; NQO1 activity induction, Liver (NQO1 activity): 1.93; NQO1 activity induction, Lung (NQO1 activity): 1.48; NOx Levels (% vs LPS Controls) ([6]; 13 mg/kg oral gavage): 44%; NOx Levels (% vs LPS Controls) ([6]; 25 mg/kg oral gavage): 26%; NOx Levels (% vs LPS Controls) ([6]; 50 mg/kg oral gavage): 18%
CC1(C)CC[C@]2(NC(=O)C(C)(F)F)CC[C@]3(C)[C@H](C(=O)C=C4[C@@]5(C)C=C(C#N)C(=O)C(C)(C)[C@@H]5CC[C@]43C)[C@@H]2C1 [desolvated class 4]	–	–	–	–	–	–	–	DVS: hygroscopicity class [7]: DVS: slightly hygroscopic; Δm = (mass increase <2% but ≧0.2%); DVS: total mass gain from 0% r.h. to 95% r.h. ([7]; 0% r.h. to 95% r.h.): mass gain of 2.1 wt.-% from 0%; DVS: Δm (50%→85% r.h.) ([7]; 50%→85% r.h., listed as PP415-P37): +0.7% (50%→85% r.h.); total; post-DVS Raman and/or PXRD: solid form ([7]; after DVS, listed as PP415-P37): to class 4; Hygroscopicity classification (DVS) ([7]; mass gain at 85% r.h.): slightly hygroscopic (mass increase <2% but ≧0.2%); DSC: no decomposition up to [8]: no decomposition up to 270 °C; TG-FTIR: mass loss (solvent) ([8]; first or main loss, solvent and temperature range per sample as printed): TG-FTIR: loss of ~0.9 wt.-%; TG-FTIR: decomposition at T ([8]; listed as PP415-P37): decomposition at T > 280 °C
